Measured values from patent US20100324285A1, “ANTIINFLAMMATORY AGENT COMPRISING 2-AMINOPHENOL OR DERIVATIVE THEREOF AS ACTIVE INGREDIENT” (priority 2006, published 2010).
Where two headings read alike, the source gives them in different places.

Tests used:
[1] = molecular target: T1, COX-1 (Ovis aries, UniProt P05979); test: COX Inhibitor Screening Assay Kit, COX-1; format: biochemical
T1 construct: purchased Cayman Chemical Company
T1 sequence (P05979 25-600): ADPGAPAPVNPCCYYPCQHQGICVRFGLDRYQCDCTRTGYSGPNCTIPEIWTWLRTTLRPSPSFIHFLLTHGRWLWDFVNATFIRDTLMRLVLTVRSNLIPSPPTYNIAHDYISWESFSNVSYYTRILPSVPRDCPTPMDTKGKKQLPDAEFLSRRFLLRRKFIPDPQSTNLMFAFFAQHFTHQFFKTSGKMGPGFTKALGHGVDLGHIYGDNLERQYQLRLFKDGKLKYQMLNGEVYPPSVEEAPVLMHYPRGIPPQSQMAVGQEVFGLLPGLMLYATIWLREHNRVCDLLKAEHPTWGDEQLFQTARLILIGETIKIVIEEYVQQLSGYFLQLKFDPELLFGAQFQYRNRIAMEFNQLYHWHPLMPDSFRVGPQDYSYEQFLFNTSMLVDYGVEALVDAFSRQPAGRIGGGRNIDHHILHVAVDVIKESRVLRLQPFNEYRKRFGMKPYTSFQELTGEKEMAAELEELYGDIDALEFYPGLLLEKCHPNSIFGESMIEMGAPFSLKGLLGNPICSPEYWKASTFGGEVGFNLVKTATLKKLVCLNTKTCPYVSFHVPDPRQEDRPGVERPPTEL
From the text: (§1) Fifty percent inhibitory concentration (IC50) means the concentration of test sample necessary for inhibiting PGE2 synthesis by 50% compared to non-inhibitory control sample. It can be also determined by measuring the amount of PGE2 produced by adding test samples to cells having cyclooxygenase activity. COX-1/COX-2 ratio means the ratio of […], and the higher the ratio is, the more specific to COX-2 the agent is.
(§2) To verify the results of Experiment 2, it was investigated that whether the activity of COXs, essential enzymes for PGE2 synthesis system, can be inhibited. […] An experimental system without the test samples was set as control. The residual activity of COX-1 or COX-2 was determined as relative activity versus control.

[2] = molecular target: T2, COX-2 (Homo sapiens, UniProt P35354); test: COX Inhibitor Screening Assay Kit, COX-2; format: biochemical
T2 sequence (P35354 18-604): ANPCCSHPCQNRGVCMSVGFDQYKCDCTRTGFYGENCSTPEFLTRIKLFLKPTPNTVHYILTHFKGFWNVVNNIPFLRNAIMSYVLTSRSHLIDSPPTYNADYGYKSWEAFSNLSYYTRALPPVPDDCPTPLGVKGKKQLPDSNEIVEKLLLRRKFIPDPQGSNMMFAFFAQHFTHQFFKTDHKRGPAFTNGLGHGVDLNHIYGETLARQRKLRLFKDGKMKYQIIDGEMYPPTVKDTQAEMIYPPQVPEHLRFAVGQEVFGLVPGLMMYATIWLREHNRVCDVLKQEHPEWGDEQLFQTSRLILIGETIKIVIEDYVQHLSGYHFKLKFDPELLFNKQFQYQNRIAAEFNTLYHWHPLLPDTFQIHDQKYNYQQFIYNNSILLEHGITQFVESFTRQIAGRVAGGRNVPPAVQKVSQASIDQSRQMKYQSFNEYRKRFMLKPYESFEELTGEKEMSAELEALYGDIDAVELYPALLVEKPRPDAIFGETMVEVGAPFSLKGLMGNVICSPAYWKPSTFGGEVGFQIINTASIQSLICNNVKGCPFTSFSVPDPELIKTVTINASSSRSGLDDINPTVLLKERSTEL
From the text: as §1, §2

[3] = tested on: Mouse melanoma cell line B16; test: Melanin synthesis in B16 cells; format: cell-based; details: for Amount of melanin (%): 5 days, per mg protein versus control
Method: (§3) As control, a system with no test sample was provided. […] The amount of protein was measured by conventional Bradfordmethod and the amount of melanin per 1 mg of protein was calculated. The amount of melanin (%) was calculated according to Formula 4, and the living cell rate (%) was calculated according to Formula 5.
As control, a system with no test sample was provided. […] The amount of protein was measured by conventional Bradford method and the amount of melanin per 1 mg of protein was calculated. The amount of melanin (%) was calculated according to Formula 4.

[4] = tested on: Mouse melanoma cell line B16; test: Living cell rate of B16 cells; details: 5 days, versus control
Method: as §3

[5] = tested on: RAW264.7 cells; test: PGE2 production by macrophage RAW264.7, PGE2-EIA kit; format: cell-based, mouse; details: LPS + IFN-γ, 2 days, relative level versus control
From the text: (§4) RAW264.7 cells, a murine macrophage cell strain, were suspended in PRMI1640 medium supplied with 10% (v/v) fetal calf serum (hereinafter abbreviated as “FCS”) to give a cell suspension with a cell concentration of 1×10^6 cells/ml. […] The experimental system without the test samples described above was set as control. […] NO production, PGE2 production and macrophage growth are indicated as relative levels versus controls.

[6] = tested on: RAW264.7 cells; test: Macrophage growth, living cell count; format: cell-based, mouse; details: 2 days, relative level versus control
From the text: as §4

[7] = tested on: RAW264.7 cells; test: NO production by macrophage RAW264.7, Griess method; format: cell-based, mouse; details: LPS + IFN-γ, 2 days, relative level versus control
From the text: As macrophage cells, RAW264.7 cell strain from mouse or macrophage cells obtained from laboratory animals such as mouse can be used. The amount of produced NO can be measured by conventional Griess method. […] RAW264.7 cells, a murine macrophage cell strain, were suspended in PRMI1640 medium supplied with 10% (v/v) fetal calf serum (hereinafter abbreviated as “FCS”) to give a cell suspension with a cell concentration of 1×10^6 cells/ml. […] The experimental system without the test samples described above was set as control. […] NO production, PGE2 production and macrophage growth are indicated as relative levels versus controls.

[8] = molecular target: T2, COX-2; details: nonsteroidal COX inhibitors, comparison values, source not given; cited from earlier work
[9] = read-out: residual activity of COX-1
[10] = read-out: residual activity of COX-2

Nc1ccccc1O [2-Aminophenol]
IC50 [1]: 28 µM | remaining activity at 8 µM [1, 9]: 66% | remaining activity at 16 µM [1, 9]: 73% | remaining activity at 32 µM [1, 9]: 42% | IC50 [2]: 27.7 µM | COX-1/COX-2 ratio ([2]; ratio of IC50 values of Table 2): about 1 | remaining activity at 8 µM [2, 10]: 72% | remaining activity at 16 µM [2, 10]: 60% | remaining activity at 32 µM [2, 10]: 47% | Amount of melanin (%) ([3]; 1 μM): 62% | Amount of melanin (%) ([3]; 2 μM): 55% | Amount of melanin (%) ([3]; 4 μM): 50% | inhibiting effect on melanin production higher than that of kojic acid ([3]; in the concentration at which the cell-growth was not inhibited): 1.000 fold | Living cell rate (%) ([4]; 1 μM): 95% | Living cell rate (%) ([4]; 2 μM): 79% | Living cell rate (%) ([4]; 4 μM): 52%

CC(=O)Oc1ccccc1C(=O)O [AS, aspirin]
PGE2 production (%) ([5]; 0.16 μM): 98% | PGE2 production (%) ([5]; 0.31 μM): 99% | PGE2 production (%) ([5]; 0.63 μM): 79% | PGE2 production (%) ([5]; 1.3 μM): 47% | PGE2 production (%) ([5]; 2.5 μM): 33% | PGE2 production (%) ([5]; 5.0 μM): 8% | PGE2 production (%) ([5]; 10 μM): 3% | Macrophage growth (%) ([6]; 0.16 μM): 103% | Macrophage growth (%) ([6]; 0.31 μM): 100% | Macrophage growth (%) ([6]; 0.63 μM): 95% | Macrophage growth (%) ([6]; 1.3 μM): 85% | Macrophage growth (%) ([6]; 2.5 μM): 86% | Macrophage growth (%) ([6]; 5.0 μM): 89% | Macrophage growth (%) ([6]; 10 μM): 89% | NO production (%) ([7]; 0.16 μM): 101% | NO production (%) ([7]; 0.31 μM): 102% | NO production (%) ([7]; 0.63 μM): 102% | NO production (%) ([7]; 1.3 μM): 93% | NO production (%) ([7]; 2.5 μM): 95% | NO production (%) ([7]; 5.0 μM): 90% | NO production (%) ([7]; 10 μM): 86% | COX-1/COX-2 ratio [8]: 0.24
